Consider 106 compounds from PubChem BioAssay AID608 (Sanford-Burnham Center for Chemical Genomics, 2007).

One may read the Kd as the concentration at which binding is half-saturated.

The source made the active and inactive calls. The rule behind the calls is not given here. A value given as a limit tells only on which side of the number the result lay.

The target of the assay is Peptidyl-prolyl cis-trans isomerase FKBP1A (Homo sapiens) (UniProt P62942). Description: FKBP12 binders, biophysical, NMR detection (AID 608). The settings on record: NMR binding, purified FKBP12.
Chain of Peptidyl-prolyl cis-trans isomerase FKBP1A (Homo sapiens) (P62942 whole entry, looked up): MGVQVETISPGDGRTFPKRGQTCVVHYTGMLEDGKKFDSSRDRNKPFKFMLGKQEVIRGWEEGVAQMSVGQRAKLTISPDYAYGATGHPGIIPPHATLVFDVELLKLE
Turning to `O=C1CC(c2ccccc2)n2ncnc2N1` (stereo unspecified), the Kd is > 4 mM (inactive).
The same measure for `O=c1ccn(Cc2ccccc2)c(=O)n1Cc1ccccc1`: > 4 mM (inactive); for `CC(C)c1ccc(SCC(=O)N2CCOCC2)cc1`: 5e-05 mM.
For the compound `CC1=CC(C)C(C(=O)O)C(C(=O)N2CCN(C)CC2)C1` (stereo unspecified), the Kd was > 4 mM (inactive).
On to `OCn1nnn(-c2ccccc2)c1=S`, for which the Kd is > 4 mM (inactive).
Under `[O-][n+]1onc2c1CCc1c-2nc(-c2ccccc2)n1O` stands > 4 mM (inactive); under `O=C(Nc1nnc(-c2ccco2)o1)c1ccc([N+](=O)[O-])o1`, > 4 mM (inactive).
For `Cc1nn(C)c2sc(CO)cc12`, the Kd is > 4 mM (inactive).
As for `CCOC(=O)C1CN(C)CCN1C` (stereo unspecified), the Kd was > 4 mM (inactive).
The same measure for `CC(=O)OC1CCC2(C)C(=CC=C3C2CCC2(C)C3CCC2C(C)/C=C/C(C)C(C)C)C1(C)C` (stereo unspecified): > 4 mM (inactive); for `CNC(=S)Nc1ccc2c(c1)OCO2`: > 4 mM (inactive); for `COc1nc(C)ccc1-c1noc(-c2ccncc2)n1`: > 4 mM (inactive).
The same measure for `Nc1ccccc1-n1cccn1`: > 4 mM (inactive); for `CC(C)c1ccc(CCC(=O)N2CCOCC2)cc1`: 0.0023 mM; for `NC(=O)N1CCc2ccccc21`: > 4 mM (inactive).
Under `CCN1C(=O)c2c(C)nc3ccccc3c2C1=O` stands > 4 mM (inactive).
Take `OCC1CCCN2CCCCC12` (stereo unspecified): the Kd was > 4 mM (inactive).
Under `CCn1c(=O)cc(N2CCC3(CC2)OCCO3)[nH]c1=O` stands > 4 mM (inactive).
Under `Cn1ccc(C(=O)NC(=S)NN2CCOCC2)n1` stands > 4 mM (inactive).
With `Cn1cc(C(=O)N/N=C/c2ccccc2)ccc1=O`, the Kd is > 4 mM (inactive).
For the compound `O=c1cc(-c2cc(O)c(O)c(O)c2)oc2cc(O)cc(O)c12`, the Kd is > 4 mM (inactive).
Under `OCc1ccc(Oc2ccccc2)nc1` stands > 4 mM (inactive); under `NC(=O)CCn1cnc2ccccc21`, > 4 mM (inactive); under `O=S(=O)(Nc1ccc2c(c1)OCCO2)c1cccs1`, > 4 mM (inactive).
The same measure for `CC(=O)c1cc(C)ccc1OC(=O)c1cccnc1`: > 4 mM (inactive); for `O=C(O)CCc1ccc2c(c1)OCO2`: > 4 mM (inactive); for `NC(=O)c1ccc(Cl)c(N2C(=O)CCC2=O)c1`: > 4 mM (inactive).
In the case of `CC(=O)NN1C(=O)/C(=C\c2ccc(O)cc2)SC1=S`, the Kd is > 4 mM (inactive).
Under `Cc1ccccc1NC(=O)/C=C\C(N)=O` stands > 4 mM (inactive); under `COc1ccc(-c2cc(=O)c3c(OC)c(OC)c(OC)c(OC)c3o2)cc1OC`, > 4 mM (inactive).
In the case of `O=C(Nc1cnc2ccccn2c1=O)c1ccc(F)cc1`, the Kd is > 4 mM (inactive).
Take `CN(C)C(=O)N1CCN(C(=O)c2ccco2)CC1`: the Kd was > 4 mM (inactive).
As for `CCOC(=O)Cc1cc(=O)n2[nH]c(C)cc2n1`, the Kd was > 4 mM (inactive).
The same measure for `O=C(c1ccc(Cl)c(F)c1F)N1CCCC1`: > 4 mM (inactive).
The same measure for `Nc1nc(-c2ccncc2)cs1`: > 4 mM (inactive).
The same measure for `Cc1cc(F)c(F)c(C(=O)NC2CC2)c1Cl`: > 4 mM (inactive); for `CC(=O)O[C@H]1C[C@@H](OC(C)=O)C(C)(C)C2C[C@@H](OC(C)=O)[C@]3(C)C([C@H](OC(C)=O)C[C@@]4(C)[C@H](c5ccoc5)OC(=O)[C@H]5O[C@]543)[C@]21C` (stereo partly specified): > 4 mM (inactive).
Turning to `CC(=O)Nc1cc(O)cc(O)c1`, the Kd was > 4 mM (inactive).
For the compound `COCC(=O)Nc1cc2c3c(c1)CCN3C(=O)CC2`, the Kd is > 4 mM (inactive).
For the compound `COc1cc(/C=C2\SC(=S)NC2=O)ccc1O`, the Kd was > 4 mM (inactive).
The same measure for `O=[n+]1cc(C2=CC=CCC2)n([O-])c2c1CCCCC2`: > 4 mM (inactive); for `CCSc1nnc(-c2ccccc2N)c(=O)[nH]1`: > 4 mM (inactive); for `Cc1cc(=O)oc2cc3c(cc12)OCCO3`: > 4 mM (inactive).
As for `c1ccc(CCNc2ncnc3nc[nH]c23)cc1`, the Kd is > 4 mM (inactive).
The same measure for `Nc1ccc(N2CCCCC2)cc1`: > 4 mM (inactive).
The same measure for `CCOC(=O)CSc1nnc(C)c(=O)[nH]1`: > 4 mM (inactive).
Turning to `NC(=O)CSc1nnc(-c2ccncc2)o1`, the Kd is > 4 mM (inactive).
The same measure for `C=C(C)C1CC=C(CO)CC1` (stereo unspecified): > 4 mM (inactive).
As to `Cc1cc(C)cc(NS(=O)(=O)N2CCCCC2)c1`, the Kd entry was “inactive”.
Under `Oc1ccc2c(c1)OCC1(O)Cc3cc(O)c(O)cc3C21` (stereo unspecified) stands > 4 mM (inactive); under `Cc1nnc(N2CCN(c3ccccc3)CC2)[nH]c1=O`, > 4 mM (inactive); under `O=C(Cn1cncn1)c1ccc(F)c(F)c1`, > 4 mM (inactive).
For the compound `O=C1CSC(c2ccccc2)N1` (stereo unspecified), the Kd was > 4 mM (inactive).
Under `CC(=O)Nc1ccn(Cc2c(F)cccc2Cl)n1` stands > 4 mM (inactive).
For `CN1C(=O)N(C)C2NC(=O)NC21` (stereo unspecified), the Kd is > 4 mM (inactive).
Regarding `COC(=O)c1cc2ccccc2cn1`, the Kd is > 4 mM (inactive).
The same measure for `Cc1ccc(CNc2ccc(O)cc2)cc1`: > 4 mM (inactive); for `O=C(CN1C(=O)CCC1=O)c1ccccc1`: > 4 mM (inactive).
Turning to `COCC(=O)Nc1nc2ccc(C)cc2s1`, the Kd is > 4 mM (inactive).
Take `CC(C)(C)c1cc(CN)c(C(=O)O)o1`: the Kd is > 4 mM (inactive).
The same measure for `Nc1cccc(S(=O)(=O)N2CCOCC2)c1`: > 4 mM (inactive).
In the case of `O=C(CSc1nc2ccccc2[nH]1)N1CCCCC1`, the Kd is > 4 mM (inactive).
The same measure for `CCOC(=O)c1sc(SC)c2c1CCCC2O` (stereo unspecified): > 4 mM (inactive); for `N#Cc1cnn(-c2ccc(Cl)cc2)c1N`: > 4 mM (inactive); for `CS(=O)(=O)Nc1ccc(C(=O)N2CCCCC2)cc1`: > 4 mM (inactive).
Under `CC1(C)C(=O)C=C[C@@]2(C)C1C[C@@H](O)[C@]1(C)C2CC[C@@]2(C)[C@H](c3ccoc3)OC(=O)[C@H]3O[C@]321` (stereo partly specified) stands > 4 mM (inactive); under `Cc1ccccc1NC(=O)C1CCC(=O)N1` (stereo unspecified), > 4 mM (inactive).
Under `O=C1NC(=S)NC(=O)C1=Cc1ccncc1` stands > 4 mM (inactive); under `CCOC(=O)c1c(C)nc2ccccn12`, > 4 mM (inactive).
`S=c1[nH]c2cccnc2[nH]1`: the Kd is > 4 mM (inactive).
On to `COc1ccccc1N1C(=N)SCC1=O`, for which the Kd was > 4 mM (inactive).
For the compound `CC(C)=CCC[C@](C)(O)C1CC=C(C)CC1` (stereo partly specified), the Kd is > 4 mM (inactive).
The same measure for `O=C(O)C1CSC(c2cc3ccccc3nc2Cl)N1` (stereo unspecified): > 4 mM (inactive).
Under `COC(=O)C1=C(C)N(c2cccc(C(C)=O)c2)C(=O)C1` stands > 4 mM (inactive); under `CN1CCn2c1nc(N1CCCCC1)nc2=O`, > 4 mM (inactive).
In the case of `O=C(Nc1ccccc1)N1CCOCC1`, the Kd was > 4 mM (inactive).
Under `Cc1occc1C(=O)Nc1nccs1` stands > 4 mM (inactive); under `O=C(COc1ccc(S(=O)(=O)NC2CCCC2)cc1)N1CCOCC1`, “inactive”.
With `COc1ccc(NC(=O)C2CC(=O)N=C(N)S2)cc1` (stereo unspecified), the Kd is > 4 mM (inactive).
With `O=C(Nc1ccc2c(c1)CCC2)c1cnccn1`, the Kd is > 4 mM (inactive).
In the case of `CC(=O)c1cccc(NS(=O)(=O)N(C)C)c1`, the Kd is > 4 mM (inactive).
The same measure for `O=C(Nc1nccs1)c1cccnc1`: > 4 mM (inactive); for `CCC1(CC)C(=O)N=C(N)NC1=O`: > 4 mM (inactive).
Consider `CCOCC(=O)NCc1n[nH]c(=O)c2ccccc12`, for which the Kd is > 4 mM (inactive).
For `NS(=O)(=O)c1ccc(N=Cc2cccs2)cc1`, the Kd was > 4 mM (inactive).
Under `Cc1nc(NC(=O)c2cccnc2)ccc1Br` stands > 4 mM (inactive); under `O=C(c1sc2cc([N+](=O)[O-])ccc2c1Cl)N1CCOCC1`, “inactive”; under `O=C1NC(=O)C(C(=S)Nc2ccccc2)C(=O)N1`, > 4 mM (inactive).
In the case of `Cc1c(C)n2c(SCC(N)=O)nnc2[nH]c1=O`, the Kd is > 4 mM (inactive).
Take `COc1cc(/C=C/C(=O)O)ccc1O`: the Kd is > 4 mM (inactive).
Under `Nc1nnc(Cc2ccc(Cl)cc2)s1` stands > 4 mM (inactive); under `COc1ccccc1NC(=O)c1snnc1C`, > 4 mM (inactive).
`Cn1c(NCC(=O)O)nc2c1c(=O)[nH]c(=O)n2C`: the Kd is > 4 mM (inactive).
Under `CSc1nc(C)c(Oc2ccccc2)c(=O)n1C` stands > 4 mM (inactive); under `Oc1ccccc1N1CCCC1`, > 4 mM (inactive); under `O=C(O)C1C(=O)NCC1c1ccccc1` (stereo unspecified), > 4 mM (inactive).
As to `Nc1ccc(C2SCCS2)cc1`, the Kd was > 4 mM (inactive).
For `Cc1oc(-c2ccccc2)cc1C(=O)O`, the Kd is > 4 mM (inactive).
On to `Cc1oc2nc3c(c(=O)[nH]c(=O)n3C)n2c1C`, for which the Kd was > 4 mM (inactive).
The same measure for `O=C1NNC(=O)C2C3c4ccccc4C(c4ccccc43)C12` (stereo unspecified): > 4 mM (inactive).
Under `NC(=O)C1CCN(C(=S)c2ccccc2)CC1` stands > 4 mM (inactive); under `Nc1cc(=O)[nH]c(SCC(=O)NC2CCCCC2)n1`, > 4 mM (inactive); under `Nc1nnc(C(F)(F)F)s1`, > 4 mM (inactive).
Consider `COc1cc2c(cc1OC)[C@@H]1C(=O)c3ccc(O)c(CC=C(C)C)c3O[C@@H]1CO2`, for which the Kd is > 4 mM (inactive).
The same measure for `N#Cc1cnn(Cc2ccc(Cl)cc2)c1N`: > 4 mM (inactive).
Consider `Cn1c(=O)n(CC(=O)Nc2cccnc2)c2ccccc21`, for which the Kd was > 4 mM (inactive).
